In brackets after ≈: the same amount, converted by molar mass.
Legend:
[1] = tested on: Mycobacterium tuberculosis; test: microbe, parasite or virus in culture; details: H37Rv
[2] = tested on: Mycobacterium tuberculosis; test: microbe, parasite or virus in culture; details: H37Rv; remark: listed apart in the source
Description: Antitubercular activity against Mycobacterium tuberculosis H37Rv by LORA method

[3] = physchem; details: water, pH 7
Description: Solubility of the compound in water at pH 7.0 by HPLC

O=[N+]([O-])c1cn2c(n1)OC[C@@H](OCc1cccc(-c3ccncc3)c1)C2
MIC [1]: 1.4 µM (≈ 0.493 µg/mL) | MIC [2]: > 32 µM

O=[N+]([O-])c1cn2c(n1)OC[C@@H](OCc1cc(-c3ccc(OC(F)F)cc3)ccn1)C2
solubility [3]: 86 µg/mL (≈ 206 µM) | MIC [1]: 0.67 µM (≈ 0.28 µg/mL) | MIC [2]: 26 µM (≈ 10.9 µg/mL)

O=[N+]([O-])c1cn2c(n1)OC[C@@H](OCc1ccc(-c3ccc(F)nc3)cn1)C2
solubility [3]: 43 µg/mL (≈ 116 µM) | MIC [1]: 0.49 µM (≈ 0.182 µg/mL) | MIC [2]: 19 µM (≈ 7.06 µg/mL)

N#Cc1ccc(-c2ccc(CO[C@@H]3COc4nc([N+](=O)[O-])cn4C3)cc2)cn1
solubility [3]: 3 µg/mL (≈ 7.95 µM) | MIC [1]: 0.2 µM (≈ 0.0755 µg/mL) | MIC [2]: 2.4 µM (≈ 0.906 µg/mL)

O=[N+]([O-])c1cn2c(n1)OC[C@@H](OCc1ccccc1-c1ccncc1)C2
MIC [1]: > 8 µM | MIC [2]: > 32 µM

O=[N+]([O-])c1cn2c(n1)OC[C@@H](OCc1ccc(-c3ccc(OC(F)(F)F)cc3F)cn1)C2
MIC [1]: 0.06 µM (≈ 0.0273 µg/mL) | MIC [2]: 1.7 µM (≈ 0.772 µg/mL)

O=[N+]([O-])c1cn2c(n1)OC[C@@H](OCc1cnc(-c3ccc(C(F)(F)F)nc3)cn1)C2
solubility [3]: 27 µg/mL (≈ 63.9 µM) | MIC [1]: 0.33 µM (≈ 0.139 µg/mL) | MIC [2]: 3.7 µM (≈ 1.56 µg/mL)

O=[N+]([O-])c1cn2c(n1)OC[C@@H](OCc1cc(-c3ccc(C(F)(F)F)cc3)ccn1)C2
solubility [3]: 43 µg/mL (≈ 102 µM) | MIC [1]: 0.88 µM (≈ 0.37 µg/mL) | MIC [2]: 24 µM (≈ 10.1 µg/mL)

O=[N+]([O-])c1cn2c(n1)OC[C@@H](OCc1ccc(-c3ccc(OC(F)(F)F)cc3Cl)nc1)C2
MIC [1]: 0.03 µM (≈ 0.0141 µg/mL) | MIC [2]: 1.6 µM (≈ 0.753 µg/mL)

COc1ccc(-c2ccc(CO[C@@H]3COc4nc([N+](=O)[O-])cn4C3)nn2)cn1
solubility [3]: 34 µg/mL (≈ 88.5 µM) | MIC [1]: 0.72 µM (≈ 0.277 µg/mL) | MIC [2]: 20 µM (≈ 7.69 µg/mL)

O=[N+]([O-])c1cn2c(n1)OC[C@@H](OCc1ccc(-c3cccnc3)cc1)C2
solubility [3]: 29 µg/mL (≈ 82.3 µM) | MIC [1]: 0.51 µM (≈ 0.18 µg/mL) | MIC [2]: 5.7 µM (≈ 2.01 µg/mL)

O=[N+]([O-])c1cn2c(n1)OC[C@@H](OCc1cccc(-c3ccc(C(F)(F)F)cn3)c1)C2
solubility [3]: 4 µg/mL (≈ 9.52 µM) | MIC [1]: 0.32 µM (≈ 0.135 µg/mL) | MIC [2]: 4.3 µM (≈ 1.81 µg/mL)

O=[N+]([O-])c1cn2c(n1)OC[C@@H](OCc1ccc(-c3ccc(Cl)c(OC(F)(F)F)c3)nc1)C2
solubility [3]: 0.22 µg/mL (≈ 0.467 µM) | MIC [1]: 0.18 µM (≈ 0.0847 µg/mL) | MIC [2]: 2.4 µM (≈ 1.13 µg/mL)

O=[N+]([O-])c1cn2c(n1)OC[C@@H](OCc1ccc(-c3cncc(F)c3)cc1)C2
solubility [3]: 55 µg/mL (≈ 149 µM) | MIC [1]: 0.55 µM (≈ 0.204 µg/mL) | MIC [2]: 2.8 µM (≈ 1.04 µg/mL)

N#Cc1ccc(-c2cncc(CO[C@@H]3COc4nc([N+](=O)[O-])cn4C3)c2)cc1
solubility [3]: 29 µg/mL (≈ 76.8 µM) | MIC [1]: 0.69 µM (≈ 0.26 µg/mL) | MIC [2]: 18 µM (≈ 6.79 µg/mL)

O=[N+]([O-])c1cn2c(n1)OC[C@@H](OCc1ccc(-c3cccc(F)n3)cc1)C2
solubility [3]: 4.3 µg/mL (≈ 11.6 µM) | MIC [1]: 0.14 µM (≈ 0.0518 µg/mL) | MIC [2]: 1.1 µM (≈ 0.407 µg/mL)

N#Cc1ccc(-c2cccc(CO[C@@H]3COc4nc([N+](=O)[O-])cn4C3)n2)cc1
solubility [3]: 24 µg/mL (≈ 63.6 µM) | MIC [1]: 0.48 µM (≈ 0.181 µg/mL) | MIC [2]: 10 µM (≈ 3.77 µg/mL)

O=[N+]([O-])c1cn2c(n1)OC[C@@H](OCc1cccc(-c3cccnc3)c1)C2
solubility [3]: 110 µg/mL (≈ 312 µM) | MIC [1]: 1.4 µM (≈ 0.493 µg/mL) | MIC [2]: 9.7 µM (≈ 3.42 µg/mL)

O=[N+]([O-])c1cn2c(n1)OC[C@@H](OCc1cnc(-c3ccc(OC(F)F)cc3)nc1)C2
solubility [3]: 1.1 µg/mL (≈ 2.62 µM) | MIC [1]: 0.13 µM (≈ 0.0545 µg/mL) | MIC [2]: 4.4 µM (≈ 1.85 µg/mL)

O=[N+]([O-])c1cn2c(n1)OC[C@@H](OCc1ccc(-c3ccc(OC(F)F)cc3)cn1)C2
MIC [1]: 0.02 µM (≈ 0.00837 µg/mL) | MIC [2]: 4 µM (≈ 1.67 µg/mL)

COc1ccc(-c2cccc(CO[C@@H]3COc4nc([N+](=O)[O-])cn4C3)c2)cn1
solubility [3]: 18 µg/mL (≈ 47.1 µM) | MIC [1]: 0.4 µM (≈ 0.153 µg/mL) | MIC [2]: 1.7 µM (≈ 0.65 µg/mL)

N#Cc1ccc(-c2ccc(CO[C@@H]3COc4nc([N+](=O)[O-])cn4C3)nc2)cc1
solubility [3]: 45 µg/mL (≈ 119 µM) | MIC [1]: 0.18 µM (≈ 0.0679 µg/mL) | MIC [2]: 7.5 µM (≈ 2.83 µg/mL)

COc1ccc(-c2cncc(CO[C@@H]3COc4nc([N+](=O)[O-])cn4C3)c2)cc1F
solubility [3]: 24 µg/mL (≈ 59.9 µM) | MIC [1]: 0.91 µM (≈ 0.364 µg/mL) | MIC [2]: 9 µM (≈ 3.6 µg/mL)

O=[N+]([O-])c1cn2c(n1)OC[C@@H](OCc1ccccc1-c1cccnc1)C2
solubility [3]: 116 µg/mL (≈ 329 µM) | MIC [1]: > 8 µM | MIC [2]: > 32 µM

O=[N+]([O-])c1cn2c(n1)OC[C@@H](OCc1cccc(-c3ccc(C(F)(F)F)cc3)n1)C2
solubility [3]: 5 µg/mL (≈ 11.9 µM) | MIC [1]: 0.29 µM (≈ 0.122 µg/mL) | MIC [2]: 2.9 µM (≈ 1.22 µg/mL)

O=[N+]([O-])c1cn2c(n1)OC[C@@H](OCc1ccc(-c3ccc(OC(F)(F)F)cc3F)nc1)C2
solubility [3]: 2.2 µg/mL (≈ 4.84 µM) | MIC [1]: 0.047 µM (≈ 0.0214 µg/mL) | MIC [2]: 1.9 µM (≈ 0.863 µg/mL)

O=[N+]([O-])c1cn2c(n1)OC[C@@H](OCc1cccc(-c3ccc(OC(F)(F)F)cc3)n1)C2
MIC [1]: 0.16 µM (≈ 0.0698 µg/mL) | MIC [2]: 1.4 µM (≈ 0.611 µg/mL)

O=[N+]([O-])c1cn2c(n1)OC[C@@H](OCc1ccc(-c3ccc(C(F)(F)F)cc3)nn1)C2
solubility [3]: 5.4 µg/mL (≈ 12.8 µM) | MIC [1]: 0.06 µM (≈ 0.0253 µg/mL) | MIC [2]: 2.8 µM (≈ 1.18 µg/mL)

O=[N+]([O-])c1cn2c(n1)OC[C@@H](OCc1ccc(-c3ccc(F)cc3)cn1)C2
MIC [1]: 0.13 µM (≈ 0.0481 µg/mL) | MIC [2]: 3.2 µM (≈ 1.19 µg/mL)

O=[N+]([O-])c1cn2c(n1)OC[C@@H](OCc1ccc(-c3ccc(C(F)(F)F)cc3)cc1)C2
solubility [3]: 0.43 µg/mL (≈ 1.03 µM)

O=[N+]([O-])c1cn2c(n1)OC[C@@H](OCc1cnc(-c3ccc(C(F)(F)F)nc3)nc1)C2
MIC [1]: 0.16 µM (≈ 0.0676 µg/mL) | MIC [2]: 12 µM (≈ 5.07 µg/mL)

O=[N+]([O-])c1cn2c(n1)OC[C@@H](OCc1cc(-c3ccc(OC(F)(F)F)cc3)ccn1)C2
MIC [1]: 0.76 µM (≈ 0.332 µg/mL) | MIC [2]: 18 µM (≈ 7.85 µg/mL)
